The source of these data is patent US20260356841A1, “HETEROCYCLIC PYRIDINONE COMPOUNDS AS TRIGGERING RECEPTOR EXPRESSED ON MYELOID CELLS 2 AGONISTS AND METHODS OF USE” (Vigil Neuroscience, Inc., priority 2023, published 2026).

Bounds are passed on as bounds.

T1 sequence (Q9NZC2 19-230): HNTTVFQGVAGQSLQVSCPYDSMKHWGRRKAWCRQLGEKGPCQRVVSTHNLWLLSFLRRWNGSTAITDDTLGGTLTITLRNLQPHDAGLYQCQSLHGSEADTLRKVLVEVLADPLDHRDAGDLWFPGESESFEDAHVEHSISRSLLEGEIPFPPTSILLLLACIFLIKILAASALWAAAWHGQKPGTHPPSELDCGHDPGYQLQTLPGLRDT
T1 sequence (O43914 22-113 partner): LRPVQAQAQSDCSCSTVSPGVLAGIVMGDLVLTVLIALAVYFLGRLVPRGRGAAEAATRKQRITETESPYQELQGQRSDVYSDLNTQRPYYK

The first assay addresses T1, human TREM2 (Homo sapiens, UniProt Q9NZC2).
T1 construct: expressed in transfected cells; host or cells: HEK293T (HEK293T-hTREM2 cells)
Briefly: TREM2 agonist potency by cellular phosphorylation of Spleen Tyrosine Kinase (Syk), AlphaLisa, HEK293T-hTREM2 cells.
Conditions: not given
The format is cell-based. As for the experimental part: Measurement of TREM2 agonist potency was done using a HEK cell line expressing human TREM2 and DAP12 (HEK293T-hTREM2 cells). Binding of small molecules to, and activation of, TREM2 increases the phosphorylation of Syk. The resultant levels of Syk phosphorylation are measured using a commercial AlphaLisa reagent kit. To perform the assay, HEK-hTREM2 cells were plated at 14,000 cells per well in a 384 well plate, in 25 μL of complete growth media and incubated at 37° C., 5% CO2 for 20-24 hours.
Prior to the assay, test compounds were diluted in the 384 well plates in assay buffer and allowed to equilibrate for 30 minutes. Growth media was removed from cell plates by inversion on blotting paper, and 25 μL of test articles in assay buffer was added to cells. Cells were incubated for 45 minutes at room temperature. After 45 minutes, assay buffer was removed and 10 μL of lysis buffer was added. Plates were shaken for 20 minutes at 350 RPM at room temperature. After complete lysis, AlphaLisa reagents were added to the lysate, and fluorescence intensity was measured using a Perkin Elmer Envision plate reader. Intensities were used to generate a standard curve, and % activation was calculated. Curve fitting was performed using Prism v9 software, log (agonist) vs response-variable slope (four parameters), and EC50s were calculated from the curve fit.
The results presented in Table B have been generated with the in vitro assay described above. This assay may be used to test any of the compounds described herein to assess and characterize a compound's ability to act as an agonist of TREM2.
`Cc1nc2cc(N3C[C@@H](C)O[C@@H](c4ccc(=O)n(C)c4)C3)nc(-c3ccc(F)cc3F)c2nc1C` [Example 191, 5-((2S,6R)-4-(5-(2,4-difluorophenyl)-2,3-dimethylpyrido[3,4-b]pyrazin-7-yl)-6-methylmorpholin-2-yl)-1-methylpyridin-2 (1H)-one] had an EC50 below 0.1 µM.
The same measure, in the same setting: then `Cc1nc2nc(N3C[C@@H](C)O[C@@H](c4ccc(=O)n(C)c4)C3)nc(C34CC(C(F)(F)F)(C3)C4)c2nc1C(F)F` [Example 180, 5-[(2S,6R)-4-[6-(difluoromethyl)-7-methyl-4-[3-(trifluoromethyl)-1-bicyclo[1.1.1]pentanyl]pteridin-2-yl]-6-methyl-morpholin-2-yl]-1-methyl-pyridin-2-one], with below 0.1 µM.

The same assay, now with this note: hTREM2 EC50 Data (HEK293 Cells); Syk phosphorylation, AlphaLisa; read-out: hTREM2 EC50.
Turning to `Cc1nc2nc([C@H]3CCO[C@@H](c4ccc(=O)n(CCO)c4)C3)nc(C34CC(C(F)(F)F)(C3)C4)c2nc1C` [Example 84, 5-[(2R,4S)-4-[6,7-dimethyl-4-[3-(trifluoromethyl)-1-bicyclo[1.1.1]pentanyl]pteridin-2-yl]tetrahydropyran-2-yl]-1-(2-hydroxyethyl)pyridin-2-one], the EC50 was below 0.1 µM.
The same measure, in the same setting: for `CC(C)=Nn1cc([C@H]2C[C@@H](c3nc(C45CC(C(F)(F)F)(C4)C5)c4cc(C(F)(F)F)c(C)nc4n3)CCO2)ccc1=O` [Example 208, 5-((2R,4S)-4-(7-methyl-6-(trifluoromethyl)-4-(3-(trifluoromethyl)bicyclo[1.1.1]pentan-1-yl)pyrido[2,3-d]pyrimidin-2-yl)tetrahydro-2H-pyran-2-yl)-1-(propan-2-ylideneamino)pyridin-2 (1H)-one] the value was below 0.1 µM.
Still for that read-out and setting: then `Cc1nc2nc([C@H]3CCO[C@@H](c4ccc(=O)n(C)c4)C3)nc(C34CCC(C(C)(F)F)(CC3)C4)c2nc1C` [Example 60, 5-((2R,4S)-4-(4-(4-(1,1-difluoroethyl)bicyclo[2.2.1]heptan-1-yl)-6,7-dimethylpteridin-2-yl)tetrahydro-2H-pyran-2-yl)-1-methylpyridin-2(1H)-one], with below 0.1 µM.
As for `Cc1nc2nc(C3CCOC(c4ccc(=O)n(C)c4)C3)nc(C34CC(C(F)(F)F)(C3)C4)c2nc1C` (stereo not drawn) [Example 27, 5-(4-(6,7-dimethyl-4-(3-(trifluoromethyl)-bicyclo[1.1.1]pentan-1-yl)pteridin-2-yl)tetrahydro-2H-pyran-2-yl)-1-methylpyridin-2(1H)-one], the EC50 is below 0.1 µM.
Same read-out and setting: for `Cc1nc2nc([C@H]3CCO[C@@H](c4ccc(=O)n(CC(F)F)c4)C3)nc(C34CC(C(F)(F)F)(C3)C4)c2nc1C` [Example 71, 1-(2,2-difluoroethyl)-5-[(2R,4S)-4-[6,7-dimethyl-4-[3-(trifluoromethyl)-1-bicyclo[1.1.1]pentanyl]pteridin-2-yl]tetrahydropyran-2-yl]pyridin-2-one] the value was below 0.1 µM; for `Cc1nc2nc([C@H]3CCO[C@H](c4ccc(=O)n(C)c4)C3)cc(C34CC(C(F)(F)F)(C3)C4)c2nc1C` [Example 170, 1-methyl-5-[(2S,4S)-4-[2,3-dimethyl-8-[3-(trifluoromethyl)-1-bicyclo[1.1.1]pentanyl]pyrido[2,3-b]pyrazin-6-yl]tetrahydropyran-2-yl]pyridin-2-one], 0.1 to 0.5 µM.
The same measure, in the same setting: then `Cc1nc2nc([C@H]3CCO[C@@H](c4ccc(=O)n(C(C)C)c4)C3)nc(C34CC(C(F)(F)F)(C3)C4)c2nc1C` [Example 77, 1-isopropyl-5-[(2R,4S)-4-[6,7-dimethyl-4-[3-(trifluoromethyl)-1-bicyclo[1.1.1]-pentanyl]pteridin-2-yl]tetrahydropyran-2-yl]pyridin-2-one], with below 0.1 µM; and `Cc1nc2nc([C@H]3CCO[C@@H](c4ccc(=O)n(-c5cnco5)c4)C3)nc(C34CC(C(F)(F)F)(C3)C4)c2nc1C` [Example 116, 5-((2R,4S)-4-(6,7-dimethyl-4-(3-(trifluoromethyl)-bicyclo-[1.1.1]pentan-1-yl)pteridin-2-yl)tetrahydro-2H-pyran-2-yl)-1-(oxazol-5-yl)pyridin-2(1H)-one], with below 0.1 µM; and `Cc1nc2nc([C@H]3CCO[C@@H](c4ccc(=O)n(C)c4)C3)nc(-c3ccc(C(F)(F)F)cc3F)c2nc1C(F)F` [Example 126, 5-[(2R,4S)-4-[6-(difluoromethyl)-4-[2-fluoro-4-(trifluoromethyl)phenyl]-7-methyl-pteridin-2-yl]tetrahydropyran-2-yl]-1-methyl-pyridin-2-one], with 0.1 to 0.5 µM.
Turning to `Cc1nc2nc([C@H]3CCO[C@@H](c4ccc(=O)n(C)c4)C3)nc(-c3ccc(C(F)(F)F)cc3F)c2nc1C` [Example 4, 1-methyl-5-[(2R,4S)-4-[4-[2-fluoro-4-(trifluoro-methyl)phenyl]-6,7-dimethyl-pteridin-2-yl]tetrahydropyran-2-yl]pyridin-2-one], the EC50 is below 0.1 µM.
As for `Cc1nc2nc([C@@H]3CCO[C@@H](c4ccc(=O)n(C)c4)C3)nc(-c3ccc(Cl)cc3F)c2nc1C` (racemic) [Example 9, 1-methyl-5-[rac-(2R,4R)-4-[4-(4-chloro-2-fluoro-phenyl)-6,7-dimethyl-pteridin-2-yl]tetrahydropyran-2-yl]pyridin-2-one], the 50% effective concentration (EC50) is below 0.1 µM.
Same read-out and setting: then `Cc1nc2nc([C@H]3CCO[C@@H](c4ccc(=O)n(CC#N)c4)C3)nc(C34CC(C(F)(F)F)(C3)C4)c2nc1C` [Example 86, 2-[5-[(2R,4S)-4-[6,7-dimethyl-4-[3-(trifluoromethyl)-1-bicyclo[1.1.1]pentanyl]pteridin-2-yl]tetrahydropyran-2-yl]-2-oxo-1-pyridyl]acetonitrile], with below 0.1 µM.
Regarding `Cc1cc2c(C34CC(C(F)(F)F)(C3)C4)nc([C@H]3CCO[C@@H](c4ccc(=O)n(C)c4)C3)nc2nc1C` [Example 324], the EC50 was below 0.1 µM.
For the compound `Cc1nc2nc([C@H]3CCO[C@@H](c4ccc(=O)n(C)c4)C3)nc(C34CC(C(F)F)(C3)C4)c2nc1C` [Example 31, 5-[(2R,4S)-4-[4-[3-(difluoromethyl)-1-bicyclo[1.1.1]-pentanyl]-6,7-dimethyl-pteridin-2-yl]-tetrahydropyran-2-yl]-1-methyl-pyridin-2-one], the concentration for a half-maximal effect (EC50) was below 0.1 µM.
The same measure, in the same setting: for `Cc1nc2nc([C@@H]3CCO[C@H](c4ccc(=O)n(C(C)C)c4)C3)nc(C34CC(C(F)(F)F)(C3)C4)c2nc1C` [Example 78, 1-isopropyl-5-[(2S,4R)-4-[6,7-dimethyl-4-[3-(trifluoromethyl)-1-bicyclo[1.1.1]-pentanyl]pteridin-2-yl]tetrahydropyran-2-yl]pyridin-2-one] the value was below 0.1 µM; for `CCNn1cc([C@H]2C[C@@H](c3nc(C45CC(C(F)(F)F)(C4)C5)c4nc(C)c(C)nc4n3)CCO2)ccc1=O` [Example 181, 5-[(2R,4S)-4-[6,7-dimethyl-4-[3-(trifluoromethyl)-1-bicyclo[1.1.1]pentanyl]pteridin-2-yl]tetrahydropyran-2-yl]-1-(ethylamino)pyridin-2-one], below 0.1 µM.
Same read-out and setting: for `C[C@@H]1CN(c2nc(-c3ccc(F)cc3F)c3sc(N(C)C)nc3n2)C[C@H](c2ccc(=O)n(C)c2)O1` [Example 176, 5-[(2S,6R)-4-[7-(2,4-difluorophenyl)-2-(dimethylamino)thiazolo[4,5-d]pyrimidin-5-yl]-6-methyl-morpholin-2-yl]-1-methyl-pyridin-2-one] the value was below 0.1 µM; for `Cc1nc2nc([C@H]3CCO[C@@H](c4ccc(=O)n(C5CC5)c4)C3)nc(C34CC(C(F)(F)F)(C3)C4)c2cc1C(F)(F)F` [Example 328, 1-cyclopropyl-5-((2R,4S)-4-(7-methyl-6-(trifluoromethyl)-4-(3-(trifluoromethyl)bicyclo[1.1.1]-pentan-1-yl)pyrido[2,3-d]pyrimidin-2-yl)tetrahydro-2H-pyran-2-yl)pyridin-2(1H)-one], below 0.1 µM.
On to `Cc1nc2nc([C@@H]3CCO[C@H](c4ccc(=O)n(C)c4)C3)nc(C3CCC(F)(F)CC3)c2nc1C` [Example 29, 5-((2S,4R)-4-(4-(4,4-difluorocyclohexyl)-6,7-dimethylpteridin-2-yl)tetrahydro-2H-pyran-2-yl)-1-methylpyridin-2 (1H)-one], for which the EC50 was in the range of 0.1 to 0.5 µM.
Same read-out and setting: for `Cc1nc2cc(N3C[C@@H](C)O[C@@H](c4ccc(=O)[nH]c4)C3)nc(-c3ccc(F)cc3F)c2nc1C` [Example 186, 5-((2S,6R)-4-(5-(2,4-difluorophenyl)-2,3-dimethylpyrido[3,4-b]pyrazin-7-yl)-6-methylmorpholin-2-yl)pyridin-2(1H)-one] the value was 0.1 to 0.5 µM; for `Cc1nc2nc([C@H]3CCO[C@@H](c4ccc(=O)n(C)c4)C3)nc(C34CC(C(F)(F)F)(C3)C4)c2nc1C` [Example 25, 5-((2R,4S)-4-(6,7-dimethyl-4-(3-(trifluoromethyl)bicyclo[1.1.1]pentan-1-yl)pteridin-2-yl)tetrahydro-2H-pyran-2-yl)-1-methylpyridin-2(1H)-one], below 0.1 µM; for `Cc1nc2nc([C@H]3CCO[C@@H](c4ccc(=O)n(N(C)C)c4)C3)nc(C34CC(C(F)(F)F)(C3)C4)c2cc1C(F)(F)F` [Example 336, 1-(dimethylamino)-5-((2R,4S)-4-(7-methyl-6-(trifluoromethyl)-4-(3-(trifluoromethyl)bicyclo-[1.1.1]pentan-1-yl)pyrido[2,3-d]pyrimidin-2-yl)tetrahydro-2H-pyran-2-yl)pyridin-2 (1H)-one], below 0.1 µM.
